The subject of data set [1] is anxiety-like behavior in B6 mice. Nature of the data set: Light-dark (LD) box test. The following applies: MG 50 mg/kg i.p. The class given is in vivo, mouse. Here is the method:
LD box test: Mice were placed in the light compartment, and activity was monitored for 4 minutes. The light compartment was illuminated to approximately 1,000 lux, and the dark compartment was illuminated to approximately 5 lux. Behavior was recorded and automatically scored by the Noldus Ethovision System.
LD box test: Ten minutes post-injection, mice were placed in the light compartment, and activity was monitored for three minutes. The light compartment was illuminated to approximately 1,000 lux, and the dark compartment was illuminated to approximately 5 lux. Behavior was recorded and automatically scored by the Noldus Ethovision System.

A further data set relates to sodium currents. The data set is described as follows: Voltage-gated sodium currents in CGN. The format is cell-based, rat. The following applies: 10 μM MG. On the procedure: Sodium currents: Sodium currents were studied as previously described (Plant 2006) using a bath solution containing 130 mM NaCl, 5 mM CsCl, 2 mM CaCl2, 1.2 mM MgCl2, 5 mM glucose, and 10 mM HEPES adjusted to pH 7.4 with NaOH. 500 nM tetrodotoxin (Sigma) was included in the bath […]. The electrode solution contained 60 mM CsCl, 80 mM CsF, 10 mM EGTA, 1 mM CaCl2, 1 mM MgCl2, 5 mM Na2ATP, and 10 mM HEPES adjusted to pH 7.4 with CsOH. All voltage-gated currents were studied following a P/5 leak subtraction protocol, and voltage-clamp errors were minimized with 80% series resistance compensation.

In data set [2] the test system is GABAA receptors in macropatches excised from CGN. Nature of the data set: Macropatch recording from CGN. The format is cell-based, rat. On the procedure: Macropatch recording: Macropatch recording was performed with 1.5-2 MΩ electrodes filled with bath solution. The inside of excised patches was perfused with electrode solution containing the indicated reagents. SR was added to the electrode where indicated.

Another data set concerns mice. The data set is described as follows: Hypothermia (rectal temperature). The following applies: 300 mg/kg i.p., B6 mice. The format is in vivo, mouse. On the procedure:
Hypothermia: Thirty minutes post-injection, rectal temperature was measured with a digital thermometer.

A further data set deals with anxiety-like behavior. The following applies: intracerebroventricular MG for six days (Hambsch 2010); cited from earlier work.
In data set [3] the test system is pilocarpine-induced seizures. The data set is described as follows: Pilocarpine-induced seizures. The format is in vivo, mouse. Here is the method:
Drug administration: All experiments with MG utilized crude MG obtained from Sigma-Aldrich. For pre-treatment, MG (50 or 200 mg/kg) or vehicle (0.9% saline) was administered by i.p. injection 10 minutes before the seizure-inducing agent. For treatment after seizure onset, MG (200 mg/kg) or vehicle (0.9% saline) was administered by i.p. injection ten minutes after seizure onset. For GLO1 inhibition, BrBzGCp2 (50 mg/kg) or vehicle (8% DMSO and 18% Tween-80) was administered by i.p. injection two hours before seizure induction.
Seizure induction: For picrotoxin-induced seizures, 5 mg/kg of picrotoxin in 0.9% saline was administered by i.p. injection. Seizures were scored for one hour after picrotoxin administration. For pilocarpine-induced seizures, mice were pre-treated with atropine (5 mg/kg in 0.9% saline) by i.p. injection in order to reduce the peripheral effects of pilocarpine. Thirty minutes after atropine administration, pilocarpine was administered by i.p. injection. B6 mice were treated with 250 mg/kg pilocarpine in 0.9% saline, and FVB mice (WT and Tg) were treated with 300 mg/kg pilocarpine in 0.9% saline. Seizures were scored for 90 minutes after pilocarpine administration.
Pilocarpine-induced seizures were scored as previously reported (Winawer 2011):
Stage 1: Immobility/Lying Low
Stage 2: Partial (limbic) seizures. Non-continuous twitching/tremor/shaking of tail/head/body/limbs, forelimb and/or tail extension, rigid posture, repetitive movements, head bobbing
Stage 3: Partial status epilepticus. Continuous tremor/clonic seizures of body and tail while retaining posture
Stage 4: Generalized seizures. Rearing/hyperexcitability/running/falling, tonic extension/clonic seizures with loss of posture
Stage 5: Generalized status epilepticus (continuous stage 4 seizures) resulting in death

The test system of data set [4] is anxiety-like behavior and locomotion in mice. Nature of the data set: Open field (OF) test. The format is in vivo, mouse. Here is the method: OF test: Mice were placed into the center of the OF, and activity was monitored for five to ten minutes. The apparatus was illuminated to approximately 40 lux. Data were collected and processed using the manufacturer's software (AccuScan Instruments).
OF test: Ten minutes post-injection, mice were placed into the center of the OF. The apparatus was illuminated to approximately 40 lux. Behavior was measured as described above.
OF test replication studies: Ten to twenty minutes post-injection, mice were tested in the OF for five to ten minutes. In some experiments, behavior was scored as described above. In other experiments, mice were tested in the OF, and behavior was automatically scored by the Noldus Ethovision System. For mice tested in the Noldus system, the apparatus was illuminated to approximately 1,000 lux.
Chronic MG administration: For five days, mice were injected twice daily with vehicle or MG (4 mg/kg). Twelve hours after the final injection, mice were tested in the OF as described above.
Pure MG: Pure MG was obtained from Dr. John Termini at the City of Hope, Duarte, Calif. It was administered at the indicated doses by i.p. injection. Mice were tested as described above.
OF test: Two hours post-injection, mice were tested in the OF test as described above. The center size was 10×10 cm. The apparatus was illuminated to approximately 40 lux.

[5] abbreviates: MG 50 and 200 mg/kg pre-treatment, pilocarpine 250 mg/kg, B6 mice.
Setting [6] is: MG 50 mg/kg i.p., male WT B6 mice, 10 min post-injection.

Where “and” joins values, the source holds several entries; their conditions need not be identical. Identical values can stand only once.

In the case of `CC(=O)C=O` [MG, methylglyoxal], in data set [1], the “number of transitions between compartments” value is given as “without affecting the number of transitions”. In data set [1] (10 min post-injection), the “time spent in the light compartment” value was “increased time spent in the light compartment”. For the same compound, the “effect on major sodium currents” value with sodium currents is reported as “did not affect the major sodium currents”. The “latency of inward current after application to the intracellular face” value in data set [2] (10 μM MG) is given as “approximately 40 seconds”. For the same compound, the “current on application to the intracellular face of macropatches” value in data set [2] (10 μM, SR 10 μM at the extracellular face (pipette)) is “elicited an inward current”. Further, in the data set with mice, the hypothermia entry is reported as “hypothermia”. Besides, the “anxiety-like behavior in the EPM” value in the data set with anxiety-like behavior is on record as “reduced anxiety-like behavior in the EPM”. Moreover, in data set [3] (MG 200 mg/kg given 10 min after pilocarpine 250 mg/kg), the “seizure duration, treatment of ongoing seizures” value is reported as “reduced seizure duration in mice undergoing pilocarpine-induced seizures”. Besides, in data set [3] (setting [5]), the “highest seizure stage reached” value is reported as “reduced seizure stage”, the “latency to reach stage 3 (seizure onset)” value is recorded as “dose-dependently delayed seizure onset” and the “time spent in stage 3 (seizure duration)” value was “reduced seizure duration”. In addition, in data set [4] (MG 4 mg/kg i.p. twice daily for five days, tested on the sixth day), the “anxiety-like behavior in the OF after chronic treatment” value is reported as “significant reduction in anxiety-like behavior”. In data set [4] (MG 50 mg/kg i.p., CD-1 mice), the “center time in the OF” value is “increased center time in the OF” and the “distance traveled in the OF” value is “without affecting distance traveled”. In data set [4] (MG 50 mg/kg i.p., CD-1 mice with Glo1 duplication), the “anxiety-like behavior in the OF in mice with the Glo1 duplication” value was “reduced anxiety-like behavior in mice with the Glo1 duplication”. Also, in data set [4] (setting [6]), the “distance traveled in the OF” value is recorded as “without affecting distance traveled” and the “increase in center time in the OF” value is given as “approximately 30%”. Besides, the “persistence of anxiolytic effect after injection” value in data set [4] (MG 50 mg/kg i.p., separate cohorts tested at different intervals) was ≤ 20 min. Moreover, the “Cohen's d, meta-analysis of anxiolytic effect in the OF test” value in data set [4] (MG 50 mg/kg i.p., seven experiments, total n = 181, fixed-effect model) was 0.78 and 0.7798. Also, in data set [4] (MG 100 mg/kg, WT B6 mice), the “locomotion in the OF” value was “decreased locomotion in the OF”.

(Values after patent US11235020B2, “Methods and compositions for inhibiting glyoxalase 1 (GLO1)” (priority 2013, dated 2022).)
